Experimental data as given in US20020001565A1, “Radioprotective agents” (priority 2000, published 2002).

Test system: CD2F 1 male mice
Assay: 30-day survival of mice after a lethal dose of cobalt-60 radiation
Assay type: in vivo
Method: Control groups were administered saline and polyethylene glycol 400 (the vehicle for the genistein) prior to irradiation. Genistein (Sigma Chemical Co., St. Louis, Mo.) was administered 400 mg/kg either as a single dose or multiple dosages of 100 mg/kg each at various times ranging from 1 hour to 4 days before radiation, after irradiation, or both before and after radiation.
In subsequent studies, using the procedures and mice of Example 1, a single subcutaneous dose of 100 or 400 mg/kg genistein was administered 24 hr before 9.5 Gy radiation.

Structure (SMILES): O=c1c(-c2ccc(O)cc2)coc2cc(O)cc(O)c12 [genistein, 5,7-dihydroxy-3-(4-hydroxyphenyl)-4H-1 benzopyran-4-one]
- 30-day survival (100 mg/kg orally daily for 4 days before and 4 days after irradiation, 9.5 Gy): 50%
- 30-day survival (genistein before and after irradiation, oral, 9.5 Gy cobalt-60, dose not given): 69%
- 30-day survival (genistein only after irradiation, oral, 9.5 Gy cobalt-60, dose not given): 0%
- 30-day survival (genistein only before radiation, oral, 9.5 Gy cobalt-60 at 0.6 Gy/min, dose not given): Forty-four
- 30-day survival (multiple oral administration 100 mg/kg, 4 days before irradiation, 9.5 Gy): 0%
- 30-day survival (multiple oral administration 100 mg/kg, after irradiation, 9.5 Gy): 0%
- radioprotection (single dose 400 mg/kg orally 1 hr before 9.5 Gy radiation): did not confer any measurable radioprotection
- radioprotection (single dose 400 mg/kg orally 24 hr before 9.5 Gy radiation): did not confer any measurable radioprotection
- 30-day survival rate (single subcutaneous dose 100 mg/kg 24 hr before 9.5 Gy radiation): 69%
- 30-day survival rate (single subcutaneous dose 400 mg/kg 24 hr before 9.5 Gy radiation): 81%
